Experimental data taken from US20160242416A1, “FUNGICIDAL ISOXAZOLINE CARBINOLS” (E I DU PONT DE NEMOURS AND COMPANY, priority 2015, published 2016).

How the values were obtained:
Phytophthora infestans = assay type: in vivo; settings: 50 ppm (asterisk); tomato late blight; 100 = 100% disease control, 0 = no control
Botrytis cinerea = assay: Test B: gray mold, preventive spray on tomato seedlings; settings: 100 = 100% disease control; for Test B rating (% disease control): gray mold on tomato, 0 = no control; for Test B disease control rating: 10 ppm test solution, 0 = no control relative to controls
Source text: (§1) General protocol for preparing test solutions for Tests A-G: the test compounds were first dissolved in acetone in an amount equal to 3% of the final volume and then suspended at the desired concentration (in ppm) in acetone and purified water (50/50 mix by volume) containing 250 ppm of the surfactant PEG400 (polyhydric alcohol esters). The resulting test suspensions were then used in Tests A-G. Compounds were sprayed at a concentration of 50 ppm (*) or 10 ppm to the point of run-off on the test plants, the equivalent of a rate of 200 g/ha or 40 g/ha, respectively.
The test solution was sprayed to the point of run-off on tomato seedlings. The following day the seedlings were inoculated with a spore suspension of Botrytis cinerea (the causal agent of gray mold on many crops) and incubated in a saturated atmosphere at 20° C. for 48 h, and moved to a growth chamber at 27° C. for 2 days, after which time visual disease ratings were made.
Compounds with an asterisks (*) were applied at a concentration of 50 ppm, otherwise test solutions were applied at 10 ppm.

[1] = system: Puccinia recondita f sp. tritici; assay: Test F: wheat leaf rust, preventive spray on wheat seedlings; settings: 100 = 100% disease control; for Test F rating (% disease control): wheat leaf rust, 0 = no control; for Test F disease control rating: 10 ppm test solution, 0 = no control relative to controls
Source text: as §1
The test solution was sprayed to the point of run-off on wheat seedlings. The following day the seedlings were inoculated with a spore suspension of Puccinia recondita f sp. tritici; (the causal agent of wheat leaf rust) and incubated in a saturated atmosphere at 20° C. for 24 h, and then moved to a growth chamber at 20° C. for 6 days, after which time visual disease ratings were made.
A dash (-) indicates no test results. Compounds with an asterisks (*) were applied at a concentration of 50 ppm, otherwise test solutions were applied at 10 ppm.

Zymoseptoria tritici = assay: Test E: wheat leaf blotch, preventive spray on wheat seedlings; settings: 100 = 100% disease control; for Test E rating (% disease control): wheat leaf blotch, 0 = no control; for Test E disease control rating: 10 ppm test solution, 0 = no control relative to controls
Stagonospora nodorum = assay: Test D: wheat glume blotch, preventive spray on wheat seedlings; settings: 100 = 100% disease control; for Test D rating (% disease control): wheat glume blotch, 0 = no control; for Test D disease control rating: 10 ppm test solution, 0 = no control relative to controls
[2] = system: Erysiphe graminis f sp. tritici; assay: Test G: wheat powdery mildew, preventive spray on wheat seedlings; settings: 100 = 100% disease control; for Test G rating (% disease control): wheat powdery mildew, 0 = no control; for Test G disease control rating: 10 ppm test solution, 0 = no control relative to controls

Compound | Test B rating (% disease control) (Botrytis cinerea; 10 ppm) [%] | Test F rating (% disease control) ([1]; 10 ppm) [%] | Test E rating (% disease control) (Zymoseptoria tritici; 10 ppm) [%] | Test D rating (% disease control) (Stagonospora nodorum; 10 ppm) [%] | Test G rating (% disease control) ([2]; 10 ppm) [%] | other results
OC(Cn1cncn1)(C1=NOC(c2ccc(Cl)cc2)C1)c1ccccc1 (mixture of isomers) [Compound 117] | – | – | – | – | – | Test C rating (% disease control) (Phytophthora infestans): 0%; Test B rating (% disease control) (Botrytis cinerea; 50 ppm (asterisk)): 61%; Test F rating (% disease control) ([1]; 50 ppm (asterisk)): 99%; Test E rating (% disease control) (Zymoseptoria tritici; 50 ppm (asterisk)): 11%; Test D rating (% disease control) (Stagonospora nodorum; 50 ppm (asterisk)): 100%; Test G rating (% disease control) ([2]; 50 ppm (asterisk)): 98%
CC(C)(C)C1CC(C(O)(Cn2cncn2)c2ccccc2)=NO1 (single isomer, unassigned) [Compound 124] | – | – | – | – | – | Test C rating (% disease control) (Phytophthora infestans): 0%; Test B rating (% disease control) (Botrytis cinerea; 50 ppm (asterisk)): 0%; Test F rating (% disease control) ([1]; 50 ppm (asterisk)): 28%; Test E rating (% disease control) (Zymoseptoria tritici; 50 ppm (asterisk)): 6%; Test D rating (% disease control) (Stagonospora nodorum; 50 ppm (asterisk)): 0%; Test G rating (% disease control) ([2]; 50 ppm (asterisk)): 96%
OC(Cn1cncn1)(C1=NOC(c2ccc(F)cc2)C1)c1ccccc1 (mixture of isomers) [Compound 116] | – | – | – | – | – | Test C rating (% disease control) (Phytophthora infestans): 0%; Test B rating (% disease control) (Botrytis cinerea; 50 ppm (asterisk)): 0%; Test F rating (% disease control) ([1]; 50 ppm (asterisk)): 80%; Test E rating (% disease control) (Zymoseptoria tritici; 50 ppm (asterisk)): 0%; Test D rating (% disease control) (Stagonospora nodorum; 50 ppm (asterisk)): 100%; Test G rating (% disease control) ([2]; 50 ppm (asterisk)): 99%
CC(C)(C)C(O)(Cn1cncn1)C1=NOC(c2ccc(Cl)cc2)C1 (single isomer, unassigned) [Compound 133] | – | – | – | – | – | Test C rating (% disease control) (Phytophthora infestans): 0%; Test B rating (% disease control) (Botrytis cinerea; 50 ppm (asterisk)): 95%; Test F rating (% disease control) ([1]; 50 ppm (asterisk)): 100%; Test E rating (% disease control) (Zymoseptoria tritici; 50 ppm (asterisk)): 88%; Test D rating (% disease control) (Stagonospora nodorum; 50 ppm (asterisk)): 100%; Test G rating (% disease control) ([2]; 50 ppm (asterisk)): 99%
CC1(c2ccc(Cl)cc2)CC(C(O)(Cn2cncn2)c2ccccc2)=NO1 (single isomer, unassigned) [Compound 211] | – | – | – | – | – | Test C rating (% disease control) (Phytophthora infestans): 0%; Test B rating (% disease control) (Botrytis cinerea; 50 ppm (asterisk)): 0%; Test F rating (% disease control) ([1]; 50 ppm (asterisk)): 28%; Test E rating (% disease control) (Zymoseptoria tritici; 50 ppm (asterisk)): 0%; Test D rating (% disease control) (Stagonospora nodorum; 50 ppm (asterisk)): 0%; Test G rating (% disease control) ([2]; 50 ppm (asterisk)): 76%
OC(Cn1cncn1)(C1=NOC(c2ccc(F)cc2)C1)c1ccc(F)cc1 (single isomer, unassigned) [Compound 119] | – | – | – | – | – | Test C rating (% disease control) (Phytophthora infestans): 0%; Test B rating (% disease control) (Botrytis cinerea; 50 ppm (asterisk)): 0%; Test F rating (% disease control) ([1]; 50 ppm (asterisk)): 41%; Test E rating (% disease control) (Zymoseptoria tritici; 50 ppm (asterisk)): 0%; Test G rating (% disease control) ([2]; 50 ppm (asterisk)): 100%
OC(Cn1cncn1)(C1=NOC(Cc2ccc(F)cc2)C1)c1ccc(Cl)cc1 (single isomer, unassigned) [Compound 198] | 0 | 100 | 0 | 81 | 100 | –
OC(Cn1cncn1)(C1=NOC(c2ccc(Oc3ccccc3)cc2)C1)c1ccc(Cl)cc1 (single isomer, unassigned) [Compound 143] | 0 | 67 | 1 | 0 | 76 | –
OC(Cn1cncn1)(C1=NOC(c2ccc(Cl)cc2)C1)C12CC3CC(CC(C3)C1)C2 (single isomer, unassigned) [Compound 39] | 0 | 0 | 18 | 87 | 73 | –
OC(Cn1cncn1)(C1=NOC(COc2ccc(Cl)nc2)C1)c1ccc(Cl)cc1 (single isomer, unassigned) [Compound 101] | 0 | 100 | 0 | 0 | 99 | –
OC(Cn1cncn1)(C1=NOC(c2ccc(Cl)cc2)C1)C1CCCCC1 (single isomer, unassigned) [Compound 197] | 11 | 100 | 0 | 92 | 98 | –
CC(C)(C)CC(O)(Cn1cncn1)C1=NOC(Cc2ccc(C(F)(F)F)cc2)C1 (single isomer, unassigned) [Compound 226] | – | – | – | – | – | Test B disease control rating (Botrytis cinerea): 0%; Test F disease control rating [1]: 100%; Test E disease control rating (Zymoseptoria tritici): 0%; Test D disease control rating (Stagonospora nodorum): 51%; Test G disease control rating [2]: 99%
OC(Cn1cncn1)(C1=NOC(c2ccc(Cl)cc2)C1)c1ccc(F)cc1 (single isomer, unassigned) [Compound 160] | 75 | 100 | 11 | 99 | 100 | –
OC(Cn1cncn1)(C1=NOC(Cn2cc(Br)cn2)C1)c1ccc(Cl)cc1 (single isomer, unassigned) [Compound 38] | 0 | 55 | 1 | 0 | 72 | –
CC1(C(O)(Cn2cncn2)C2=NOC(c3ccc(Cl)cc3)C2)CC1 (single isomer, unassigned) [Compound 126] | 97 | 100 | 89 | 100 | 99 | –
OC(Cn1cncn1)(C1=NOC(COC2CCCCC2)C1)c1ccc(Cl)cc1 (single isomer, unassigned) [Compound 89] | 0 | 0 | 0 | 0 | 76 | –
C[S+]([O-])c1ccc(C2CC(C(O)(Cn3cncn3)c3ccc(Cl)cc3)=NO2)cc1 (single isomer, unassigned) [Compound 112] | 0 | 65 | 80 | 0 | 69 | –
CC(C)(C)C(O)(Cn1cncn1)C1=NOC(Cc2ccc(Br)cc2)C1 (single isomer, unassigned) [Compound 52] | 98 | 100 | 4 | 100 | 100 | –
OC(Cn1cncn1)(C1=NOC(c2ccc(C(F)(F)F)cc2)C1)c1ccc(C(F)(F)F)cc1 (single isomer, unassigned) [Compound 153] | 0 | 100 | 93 | 0 | 100 | –
CC(C)(C)C(O)(Cn1cncn1)C1=NOC(COc2ccc(Cl)cn2)C1 (single isomer, unassigned) [Compound 96] | 85 | 100 | 5 | 100 | 99 | –
CC(C)(C)C(O)(Cn1cncn1)C1=NOC(Cn2ccc(C(F)(F)F)n2)C1 (single isomer, unassigned) [Compound 48] | 0 | 99 | 0 | 94 | 99 | –
OC(Cn1cncn1)(C1=NOC2c3ccccc3CCC12)c1ccc(Cl)cc1 (stereo not shown) [Compound 222] | – | – | – | – | – | Test B disease control rating (Botrytis cinerea): 9%; Test F disease control rating [1]: 100%; Test E disease control rating (Zymoseptoria tritici): 23%; Test D disease control rating (Stagonospora nodorum): 50%; Test G disease control rating [2]: 99%
